Laboratory results reported in US8809270B2, “Method for reducing cardiovascular morbidity and mortality in prediaetic patients and patients with type 2 diabetes” (priority 2003, dated 2014).

Columns and labels:
[1] = tested on: type 2 diabetic population inadequately treated with oral drugs; experiment: Treat-to-Target study (HOE901/4002): lipid data; type: in vivo, human; set-up: Triglycerides % reduction from baseline / Triglycerides % reduction from baseline, LANTUS-AMARYL / Non-HDL Cholesterol Total % reduction from baseline / Non-HDL Cholesterol Total % reduction from baseline, LANTUS-AMARYL: concentration or dose not given beside the values; Triglycerides Baseline / Triglycerides Endpoint: unit not given beside the values; details: for Non-HDL Cholesterol Total % reduction from baseline, LANTUS-AMARYL / Non-HDL Cholesterol Total change at endpoint, LANTUS-AMARYL / Triglycerides % reduction from baseline, LANTUS-AMARYL / Triglycerides change at endpoint, LANTUS-AMARYL: LANTUS (4002 Study) minus AMARYL (two AMARYL studies)
Excerpt: As a consequence of the excellent glycemic control attained, which set the standard for glycemic control in future trials, the 4002 study results are especially useful as an assessment of Lantus's LANTUS (insulin glargine) effects on lipids.

[2] = tested on: individuals with IGT, IFG, or mild untreated type 2 diabetes; experiment: Study HOE901/1021: adverse events and hypoglycemia; type: in vivo, human
Experimental: The study was conducted at three centers in the US. After screening tests, including fasting plasma glucose (FPG) and post prandial plasma glucose (PPG; two hours following a 75 g oral glucose load) for classification as IGT, IFG, diabetic, or normal glucose tolerance (NGT), and after satisfying other inclusion criteria including the ability to perform moderate exercise on a stationary bicycle, subjects were admitted to an inpatient study center. They were confined there for the next 15 days, during which time they were randomly assigned to receive either HOE901 once per day subcutaneously in the evening, or matching placebo (saline) injections in a 3:1 randomization (HOE901:placebo). Baseline assessments included a 5-point (before each meal, bedtime, and 3 AM) and 8-point (5-point plus readings 2 hours after each meal) blood glucose profile on separate days, and 15 minutes of exercise on a stationary bicycle at a level of exertion of “somewhat hard” on the Borg scale with blood glucose values monitored during and for 3 hours following the exercise. Each subject received a 25 kCal/kg diet while confined in the study center. Capillary whole blood glucose values were recorded on HemoCue devices. Episodes of hypoglycemia (blood glucose 50 mg/dL [2.8 mM] or symptoms with blood glucose 65 mg/dL [3.6 mM]) were recorded.
Treatment-emergent adverse events (TEAEs) occurred in 10 subjects in the HOE901 group (16 events) vs. 2 in the placebo group (5 events). Each event occurred in only 1 individual except for headache, which occurred in 3 HOE901 subjects. Only 2 HOE901 subjects and 1 placebo subject had events that were considered by investigators as possibly related to study drug. The HOE901 events were 2 episodes of headache, and one of hypoglycemia. The two headaches occurred in subjects who had hypoglycemic events on the same days and at approximately the same time as the headaches. […] Subject 3011 (who reported dizziness as an adverse event during screening) was removed from the study by the sponsor prior to receiving any study drug dose because of hypoglycemia that occurred during screening.
Only mild hypoglycemia occurred in 4 out of 16 subjects treated with HOE901 in this study. These hypoglycemic events generally occurred before lunch or supper, and resolved promptly with oral caloric intake. No episodes of hypoglycemia occurred in relation to exercise. Although the calorie-restricted diet subjects consumed during this study doubtless played a role in the occurrence of these events, the diet was typical in size for what is recommended to these frequently overweight individuals. […] Hypoglycemia can occur, but is manageable not related to exercise, and detectable with the aid of home glucose monitoring.

In the case of insulin glargine [LANTUS], the “HDL Baseline” value ([1]; TG baseline range 200-500) is reported as 42, the “HDL Endpoint” value ([1]; TG baseline range 200-500) is reported as 41 and the “Non-HDL Cholesterol Total % reduction from baseline” value ([1]; TG baseline range 200-500) is reported as 7%. For the same substance, the “Non-HDL Cholesterol Total Baseline” value ([1]; TG baseline range 200-500) was 167, the “Non-HDL Cholesterol Total Endpoint” value ([1]; TG baseline range 200-500) was 155 and the “Triglycerides % reduction from baseline” value ([1]; TG baseline range 200-500) was 25%. For the same substance, the “Triglycerides Baseline” value ([1]; TG baseline range 200-500) was 288, the “Triglycerides Endpoint” value ([1]; TG baseline range 200-500) was 232 and the “Non-HDL Cholesterol Total % reduction from baseline, LANTUS-AMARYL” value ([1]; TG baseline range 200-500) was 4%. For the same substance, the “Non-HDL Cholesterol Total change at endpoint, LANTUS-AMARYL” value (shortened to “Non-HDL Cholesterol Total change”) ([1]; TG baseline range 200-500) was 5.8, the “Triglycerides % reduction from baseline, LANTUS-AMARYL” value ([1]; TG baseline range 200-500) was 13% and the “Triglycerides change at endpoint, LANTUS-AMARYL” value (“Triglycerides change at endpoint” below) ([1]; TG baseline range 200-500) was 21.7. For the same substance, the “HDL Baseline” value ([1]; TG baseline range 300-500) was 40, the “HDL Endpoint” value ([1]; TG baseline range 300-500) was 40 and the “Non-HDL Cholesterol Total % reduction from baseline” value ([1]; TG baseline range 300-500) was 15%. For the same substance, the “Non-HDL Cholesterol Total Baseline” value ([1]; TG baseline range 300-500) was 180, the “Non-HDL Cholesterol Total Endpoint” value ([1]; TG baseline range 300-500) was 152 and the “Triglycerides % reduction from baseline” value ([1]; TG baseline range 300-500) was 34%. The “Triglycerides Baseline” value ([1]; TG baseline range 300-500) was 362, the “Triglycerides Endpoint” value ([1]; TG baseline range 300-500) was 240 and the “Non-HDL Cholesterol Total % reduction from baseline, LANTUS-AMARYL” value ([1]; TG baseline range 300-500) was 12%. For the same substance, the “Non-HDL Cholesterol Total change” value ([1]; TG baseline range 300-500) was 21.9, the “Triglycerides % reduction from baseline, LANTUS-AMARYL” value ([1]; TG baseline range 300-500) was 16% and the “Triglycerides change at endpoint” value ([1]; TG baseline range 300-500) was 52.5. For the same substance, the “HDL Baseline” value ([1]; TG baseline range 300-1000) was 37, the “HDL Endpoint” value ([1]; TG baseline range 300-1000) was 38 and the “Non-HDL Cholesterol Total % reduction from baseline” value ([1]; TG baseline range 300-1000) was 10%. For the same substance, the “Non-HDL Cholesterol Total Baseline” value ([1]; TG baseline range 300-1000) was 181, the “Non-HDL Cholesterol Total Endpoint” value ([1]; TG baseline range 300-1000) was 163 and the “Triglycerides % reduction from baseline” value ([1]; TG baseline range 300-1000) was 36%. For the same substance, the “Triglycerides Baseline” value ([1]; TG baseline range 300-1000) was 470, the “Triglycerides Endpoint” value ([1]; TG baseline range 300-1000) was 301 and the “Non-HDL Cholesterol Total % reduction from baseline, LANTUS-AMARYL” value ([1]; TG baseline range 300-1000) was 5%. The “Non-HDL Cholesterol Total change” value ([1]; TG baseline range 300-1000) was 8.6, the “Triglycerides % reduction from baseline, LANTUS-AMARYL” value ([1]; TG baseline range 300-1000) was 13% and the “Triglycerides change at endpoint” value ([1]; TG baseline range 300-1000) was 63.6. The “HDL Baseline” value ([1]; TG baseline range 500-1000) was 33, the “HDL Endpoint” value ([1]; TG baseline range 500-1000) was 36 and the “Non-HDL Cholesterol Total % reduction from baseline” value ([1]; TG baseline range 500-1000) was 8%. For the same substance, the “Non-HDL Cholesterol Total Baseline” value ([1]; TG baseline range 500-1000) was 186, the “Non-HDL Cholesterol Total Endpoint” value ([1]; TG baseline range 500-1000) was 171 and the “Triglycerides % reduction from baseline” value ([1]; TG baseline range 500-1000) was 38%. For the same substance, the “Triglycerides Baseline” value ([1]; TG baseline range 500-1000) was 661, the “Triglycerides Endpoint” value ([1]; TG baseline range 500-1000) was 409 and the “Non-HDL Cholesterol Total % reduction from baseline, LANTUS-AMARYL” value ([1]; TG baseline range 500-1000) was −2%. The “Non-HDL Cholesterol Total change” value ([1]; TG baseline range 500-1000) was −9.0, the “Triglycerides % reduction from baseline, LANTUS-AMARYL” value ([1]; TG baseline range 500-1000) was 5% and the “Triglycerides change at endpoint” value ([1]; TG baseline range 500-1000) was 34.4. For the same substance, the “LDL Baseline” value ([1]; TG baseline range All) was 113, the “LDL Endpoint” value ([1]; TG baseline range All) was 110 and the “reduction in fasting TG levels” value ([1]; all patients) was 24%. The “reduction in fasting TG levels” value ([1]; elevations of 500 mg/dL or more) was 38%, the “reduction in fasting TG levels” value ([1]; fasting TG in the 300-499 mg/dL range) was 34% and the “Treatment-emergent adverse events (TEAEs), events” value ([2]; in vivo) was 16 events. The “Treatment-emergent adverse events (TEAEs), subjects” value ([2]; in vivo) was 10 subjects, the headache ([2]; in vivo) was 3 subjects and the safety and tolerability ([2]; in vivo) was “safe and well tolerated”. The serious adverse events ([2]; in vivo) was “no serious adverse events”, the “subjects with events considered by investigators as possibly related to study drug” value ([2]; in vivo) was 2 subjects and the mild hypoglycemia ([2]; out of 16 subjects treated) was 4 subjects.
